Biological target: 2''-aminoglycoside nucleotidyltransferase (Pseudomonas aeruginosa (g-Proteobacteria))
Assay: In Vitro ANT(2")-Ia Pyrophosphatase Assay
Description: In vitro ANT(2")-Ia pyrophosphatase assays were performed as described previously (Cox et al., 2015; Hirsch et al., 2014), with minor modifications. To improve compound solubility, Tween 20 was added to a final concentration of 0.01% (v/v) and compounds were added at a final concentration of 2% (v/v) DMSO. The enzyme ([…] reaction volume) was incubated with compound for 10 min at 25 °C, prior to initiation of the reaction with nucleotide. All inhibitory assays were performed with kanamycin B kept at Km (Cox et al., 2015; Hirsch et al., 2014).

Row | SMILES | Ki
1 | CS(=O)(=O)CCNCc1ccc(-c2ccc3ncnc(Nc4ccc(OCc5ccccc5)c(Cl)c4)c3c2)o1 | 60 µM
2 | [O-][S+]1CCN(Cc2ccc(-c3ccc4ncnc(Nc5ccc(OCc6ccccc6)c(Cl)c5)c4c3)o2)CC1 [(4-benzyloxy-3-chloro-phenyl)-{6-[5-(1-oxo-1lambda*4*-thiomorpholin-4-ylmethyl)-furan-2-yl]-quinazolin-4-yl}-amine] | 12.9 µM

— BindingDB's records for doi:10.1016/j.chembiol.2016.11.011 (McMaster University, 2017)
